Data reported in EP0753258B1 (priority 1995, dated 1997).
Where “and” joins values, the source holds several entries; their conditions need not be identical. Identical values can stand only once. Like-named read-outs stand apart in the source and are kept apart here.

Columns and labels:
Phytophthora infestans [1] = settings: in vivo
Phytophthora infestans [2] = settings: in vivo; remark: listed apart in the source
Plasmopara viticola [3] = settings: in vivo
Plasmopara viticola [4] = assay: Field trial, grape downy mildew fruit rot, Michigan, U.S.A. (natural infection); format: in vivo; settings: 12 days after last treatment, 100 g/ha of each compound, grapes; for % Control, Incidence (Observed): downy mildew fruit rot incidence; for % Control, Severity (Observed): downy mildew fruit rot severity (diseased fruit surface area)
Method: (§1) The results provided by the mixtures were compared with the predicted results that were calculated using the formula set forth by S.R. Colby in Weeds 1967, 15, 20-22 ("Colby's Formula") from the results obtained using each of the compounds individually. The predicted results are also provided in the following Examples.
The trial was conducted in the State of Michigan, U.S.A. Plots consisted of 4 grape vines, cultivar Chancellor. Four such plots arranged in randomized blocks were used for each treatment
Fungicide treatments were applied at day 0, and at 13, 28, 43, 55, 71, and 84 days thereafter. N-[3(1'-chloro-3'-methyl-2'-oxopentan]-3,5-dichloro-4-methylbenzamide was applied as a flowable formulation (23% active ingredient) at 100 grams of active ingredient per hectare, and 2-cyano-N-((ethylamino)carbonyl)-2-(methoxyimino)acetamide was applied as a wettable powder formulation (CURZATE™, 50WP, DuPont, Wilmington, DE) at 100 grams of active ingredient per hectare. The two compounds were also applied as an aqueous tank mix of the two compounds at a dosage of 100 grams of active ingredient per hectare of each compound.
Evaluation of disease in response to natural infection was made 12 days after the last treatment The incidence and severity of downy mildew fruit rot was determined for twenty clusters of fruit selected randomly from the middle two vines of each plot Incidence refers to whether or not the cluster was diseased, and severity is the percentage of diseased fruit surface area. The compounds applied (Compound), and the incidence and severity results, expressed as percent disease control in comparison with untreated plots (% Control, Incidence (Observed) and % Control, Severity (Observed), respectively) are set forth below in TABLE 4 for treatment with N-[3'(1'-chloro-3'-methyl-2'-oxopentan]-3,5-dichloro-4-methylbenzamide, treatment with 2-cyano-N-((ethylamino)carbonyl)-2-(methoxyimino)acetamide and treatment with a mixture of the two compounds. The results obtained using the mixture of the two compounds were compared with predicted results that were calculated using Colby's formula from the results obtained using each of the compounds individually. The predicted results for incidence and severity are set forth below in TABLE 4 as "% Control, Incidence (Predicted)" and "% Control, Severity (Predicted)", respectively.

Phytophthora infestans [5] = format: in vivo; settings: 6 days after inoculation, tomatoes
Plasmopara viticola [6] = assay: Field trial, grape vines, Campinas, Brazil (heavy natural infection); format: in vivo; settings: grapes
Method: as §1
A field trial was conducted in Campinas, Brazil. Plots each consisted of 4 grape vines, cultivar Maria.
Fungicide treatments were applied at 7-day intervals with a total of 5 applications. N-[3'(1'-chloro-3'-methyl-2'-oxopentan]-3,5-dichloro-4-methylbenzamide was applied as a flowable formulation (23% active ingredient) , 2-cyano-N-((ethylamino)carbonyl)-2-(methoxyimino)acetamide as a wettable powder formulation (CURZATE™, 50WP, DuPont, Wilmington, DE). The two compounds were each applied individually in the manner disclosed above and in combination as an aqueous tank mix of the two compounds.
Evaluation of disease in response to a heavy natural infection was made 6 days after the third application, and 7 days after the fifth application. The Compounds applied and dosage rates, expressed as grams of active ingredient per hectare (Compound Dosage Rate (g/ha)) and the results, expressed as percent disease control in comparison with untreated plots (% Control(Observed)) are set forth below in TABLE 6 for treatment with N-[3'(1'-chloro-3'-methyl-2'-oxopentan]-3,5-dichloro4-methylbenzamide, treatment with 2-cyano-N-((ethylamino)carbonyl)-2-(methoxyimino)acetamide and treatment with mixtures of the two compounds. The results obtained using the mixtures of the two compounds were compared with those predicted by Colby's formula from the results provided by each of the two compounds used individually. The predicted results are set forth below in TABLE 6 as "% Control (Predicted)".

Row | Compound | % Control (Observed) (Phytophthora infestans [1]) | % Control by Evaluation Interval 5 weeks (Phytophthora infestans [2]) | % Control by Evaluation Interval 6 weeks (Phytophthora infestans [2]) | % Control by Evaluation Interval 7 weeks (Phytophthora infestans [2]) | % Control (Observed) (Plasmopara viticola [3]) | % Control, Incidence (Observed) (Plasmopara viticola [4]) | % Control, Severity (Observed) (Plasmopara viticola [4]) | % Control (Observed) (Phytophthora infestans [5]; single compound 0.4 ppm) | % Control (Observed) (Phytophthora infestans [5]; single compound 0.8 ppm) | further results
1 | CCC(C)(NC(=O)c1cc(Cl)c(C)c(Cl)c1)C(=O)CCl (stereo not drawn) [Compound A] | 23% | 99% and 98% | 97% and 81% | 88% and 56% | 87% | 43.7% | 75.3% | 0% | 20% | % Control by Evaluation Interval 9 weeks (Phytophthora infestans [2]): 16% and 11%; % Control by Evaluation Interval 10 weeks (Phytophthora infestans [2]): 11% and 6%; % Control by Evaluation Interval 11 weeks (Phytophthora infestans [2]): 1% and 0%; % Control (Observed) (Plasmopara viticola [6]; Seven days after the fifth treatment, A 100 g/ha alone): 21.4%; % Control (Observed) (Plasmopara viticola [6]; Seven days after the fifth treatment, A 200 g/ha alone): 26.1%; % Control (Observed) (Plasmopara viticola [6]; Six days after the third treatment, A 100 g/ha alone): 24.3%; % Control (Observed) (Plasmopara viticola [6]; Six days after the third treatment, A 200 g/ha alone): 21.8%
2 | manganese-zinc ethylenebis(dithiocarbamate) [reference compound] | 69% | 99% and 98% | 98% and 88% | 95% and 80% | 61% | – | – | – | – | % Control by Evaluation Interval 8 weeks (Phytophthora infestans [2]): 87% and 62%
3 | CCNC(=O)NC(=O)C(C#N)=NOC [Compound C, 2-cyano-N-((ethylamino)carbonyl)-2-(methoxyimino)acetamide] | – | – | – | – | – | 2.5% | 34.6% | – | – | % Control (Observed) (Plasmopara viticola [6]; Seven days after the fifth treatment, C 25 g/ha alone): 66.7%; % Control (Observed) (Plasmopara viticola [6]; Seven days after the fifth treatment, C 50 g/ha alone): 59.6%; % Control (Observed) (Plasmopara viticola [6]; Seven days after the fifth treatment, C 100 g/ha alone): 64.3%; % Control (Observed) (Plasmopara viticola [6]; Six days after the third treatment, C 25 g/ha alone): 71.3%; % Control (Observed) (Plasmopara viticola [6]; Six days after the third treatment, C 50 g/ha alone): 64.8%; % Control (Observed) (Plasmopara viticola [6]; Six days after the third treatment, C 100 g/ha alone): 74.1%
4 | COc1ccc(C(=CC(=O)N2CCOCC2)c2ccc(Cl)cc2)cc1OC [Compound D, (E,Z) 4-(3-(4-chlorophenyl)-3-(3,4-dimethoxyphenyl)acryloyl) morpholine] | – | – | – | – | – | – | – | 0% | 10% | % Control (Observed) (Phytophthora infestans [5]; single compound 1.5 ppm): 35%
